Data taken from patent US20170119806A1, “[…] LACTONE DERIVATIVES AND METHODS OF MAKING AND USING THEREOF” (OHIO STATE INNOVATION FOUNDATION, priority 2014, published 2017).
“Also recorded” adds a separate entry of the source.

Experiments:
Toxicity of PL-C in mice = assay type: in vivo; conditions: up to 500 mg PL-C/kg body weight
Text: The findings discussed herein provide an avenue to prevent or treat cancer using natural products and their derivatives through enhancing NK cell immuno-surveillance. […] Developing less toxic drugs is important for preventing or treating some cancers, especially thr those which are dominant in children or in elderly populations, such as AML AML primarily affects older adults: the median age at diagnosis is >65 years (Estey E and Milner H. Lancet 2006, 368, 18941907; Yanada M and Naoe T. Int. J. Hematol. 2012, 96, 186-193). The 5 year survival rate of AML in older adults remains under 10% (Stein E M and Tallman M S. Int J. Hematol 2012, 96, 164-170). Elderly AML patients are less able than younger patients to tolerate effective therapies such as intensive chemotherapy and allogeneic stem cell transplantation.

[1] = tested on: C3-3P NF-κB p65 binding site of the IFNG promoter; assay: EMSA and ChIP of p65 binding to the IFNG promoter; assay type: cell-based, human; conditions: 10 μM PL-C with IL-12 (10 ng/mL), 12 h, ChIP
Experimental: (A) Schematic of IFNG promoter potential binding sites for p65 (45). (B) NK cells purified from healthy donors were treated with 10 μM PL-C or DMSO vehicle control in the presence of IL-12 (10 ng/mL) for 12 h. Cell pellets were harvested for nuclear extraction, followed by EMSA with a ^32P-labeled oligonucleotide containing the C3-3P NF-κB p65 binding site of the IFNG promoter. Data shown represent one of three donors with similar results. (C) Cells were treated as described in (B), and the cell pellets were harvested to extract protein for ChIP assay of p65 binding to the IFNG promoter locus C3-3P. Mean of relative association of p65 at the IFNG promoter locus C3-3P from three independent experiments is shown. *p<0.05, compared with cells treated with IL-12 alone. Error bars represent S.D.
EMSA. Nuclear extracts were isolated using a nuclear extract kit, according to the manufacturer's instruction (Active Motif, Carlsbad, Calif.). EMSA was performed as described previously (Bachmeyer C et al. Nucleic Acids Res, 1999, 27, 643-648). […]
Chromatin immunoprecipitation. […] DNA precipitated by the anti-p65 or the normal IgG Abs was quantified by real-time PCR, and values were normalized to input DNA.

[2] = tested on: STAT3, STAT4, STAT5, T-BET; assay: Immunoblotting of STATs and T-BET in NK cells; assay type: cell-based, human; conditions: 5 or 10 μM PL-C, 4 h, with IL-12 or IL-15; listed as PL-C
Experimental: (A) Purified human primary NK cells were treated with 10 μM PL-C in the presence of IL-2 (10 ng/mL) or IL-15 (100 ng/mL) for 12 hours. DMSO-treated cells served as vehicle controls. Cell pellets were harvested to extract total RNA for real-time RT-PCR to determine mRINA expression levels of IL-12Rβ1, IL-12Rβ2, IL-15Rα and IL-15β. Data are shown as means of 3 donors, * and ** indicate p<0.05 and p<0.01, respectively, which denote a statistical comparison between the two marked treatment groups. Error bars represent S.D. (B, C) Purified primary NK cells (B) or NKL cells (C) were treated with 5 or 10 μM PL-C in the presence of IL-12 (10 ng/mL) or IL-15 (100 ng/mL) for 4 hours. DMSO-treated cells served as vehicle controls. Cell pellets were harvested for subsequent immunoblotting of T-BET, phosphorylated STAT3 (p-STAT3), p-STAT4, p-STAT5, STAT3, STAT4, and STAT5. Data represent 1 out of 3 donors with similar data (B) and 3 independent experiments with similar results (C). Numbers underneath each lane represent quantification of detected protein by densitometry, after normalizing to β-actin.
Immunoblotting. Immunoblotting was performed as described previously (Yu J et al. Immunity 2006, 24, 575-590; Yu J et al. Blood 2010, 115, 274-281). […]

TLR1 or TLR6 = assay: TLR activation assessment (NF-κB luciferase reporter in HEK293T); assay type: cell-based, human; conditions: various concentrations of PL-C, 24 h
[3] = tested on: HT-29 human colon cancer cells; assay: Cytotoxicity against HT-29 cells; conditions: read-out: IC50 values toward the HT-29 cells; Table 6; triplicate, two independent experiments
Experimental: (§1) The cytotoxicity of the test compounds was screened against HT-29 cells by a previously reported procedure (Ren Y et al. J. Nat. Prod 2011, 74, 1117-1125). Paclitaxel and etoposide were used as positive controls.
(§2) All arylnaphthalene lignans isolated from P. poilanet in the present study and their semi-synthetic analogues were evaluated for their cytotoxicity against HT-29 human colon cancer cells, using paclitaxel as the positive control (Table 6) (Ren Y et al. J. Nat. Prod 2011, 74, 1117-1125).

[4] = tested on: HT-29 human colon cancer cells
Experimental: as §1, §2

## COc1cc2c(OC3OCC(O)C(O)C3O)c3c(c(-c4ccc5c(c4)OCO5)c2cc1OC)C(=O)OC3 (stereo not drawn) [Compound 4, Phyllanthusmin C]
Toxicity of PL-C in mice
  toxicity in mice: lack of substantial toxicities
[1]
  p65 binding to the C3-3P site of the IFNG promoter: enhanced p65 binding to the C3-3P binding site
[2]
  total or phosphorylated STAT3, STAT4, STAT5 and T-BET in NK or NKL cells: No upregulation; also recorded: no significant change of T-BET
TLR1 or TLR6
  NF-κB luciferase reporter activity in TLR1- or TLR6-transfected 293T cells: induce luciferase reporter activity in a dose-dependent fashion
[3]
  IC50: 3.2 µM
[4]
  cytotoxicity toward HT-29 cells (in words): cytotoxic
